Assay results reported in patent publication US9029370B2, “Substituted benzamide derivatives” (Hoffmann-La Roche Inc., priority 2011, dated 2015).
Where a name gives a salt, the structure may show the parent alone. One block for each compound: values may come before it.

Legend:
[1] = target: mouse TAAR1 (Mus musculus (Mouse), UniProt Q923Y8); test: Radioligand binding assay on mouse TAAR1; details: mouse TAAR1, HEK-293 membranes; first value of the pair (before the slash); read-out: Ki (μM) mouse/rat
Chain of mouse TAAR1 (Q923Y8 whole entry): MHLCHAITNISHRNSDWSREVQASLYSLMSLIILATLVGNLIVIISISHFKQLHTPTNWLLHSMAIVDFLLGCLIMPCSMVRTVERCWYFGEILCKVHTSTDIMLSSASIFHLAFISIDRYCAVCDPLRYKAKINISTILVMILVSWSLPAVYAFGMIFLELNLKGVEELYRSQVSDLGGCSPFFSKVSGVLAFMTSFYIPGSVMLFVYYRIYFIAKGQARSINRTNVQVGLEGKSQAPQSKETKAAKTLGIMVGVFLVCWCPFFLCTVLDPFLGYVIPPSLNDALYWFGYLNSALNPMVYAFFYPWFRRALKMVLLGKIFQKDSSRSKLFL
Procedure, shortened: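 Membranes from HEK293 cells stably expressing mouse TAAR1, in HEPES-NaOH pH 7.4 with 0.1 mM EDTA, were incubated 1 h at 4°C with tritiated (S)-4-[(ethyl-phenyl-amino)-methyl]-4,5-dihydro-oxazol-2-ylamine and compound (10 pM–10 μM, duplicates). Nonspecific binding defined with 10 μM unlabeled ligand; bound radioactivity by filtration and scintillation counting.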

[2] = target: rat TAAR1 (Rattus norvegicus (Rat), UniProt Q923Y9); test: Radioligand binding assay on rat TAAR1; details: rat TAAR1, HEK-293 membranes; second value of the pair (line below); read-out: Ki (μM) mouse/rat
Chain of rat TAAR1 (Q923Y9 whole entry): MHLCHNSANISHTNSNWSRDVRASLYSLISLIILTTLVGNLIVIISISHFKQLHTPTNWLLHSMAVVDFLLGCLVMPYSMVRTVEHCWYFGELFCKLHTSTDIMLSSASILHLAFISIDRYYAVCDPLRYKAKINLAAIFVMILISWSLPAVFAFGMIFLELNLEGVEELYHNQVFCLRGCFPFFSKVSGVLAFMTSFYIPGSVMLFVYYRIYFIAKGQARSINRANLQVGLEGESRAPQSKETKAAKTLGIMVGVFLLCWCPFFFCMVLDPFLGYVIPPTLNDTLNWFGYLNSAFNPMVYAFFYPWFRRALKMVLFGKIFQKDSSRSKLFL
Procedure, shortened: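 Membranes from HEK293 cells stably expressing rat TAAR1 were incubated 1 hr at 4 °C with ^3[H]-(S)-4-[(ethyl-phenyl-amino)-methyl]-4,5-dihydro-oxazol-2-ylamine; nonspecific binding was defined with 10 μM unlabeled ligand. Compounds were tested at 10 pM to 10 μM in duplicate. Bound radioactivity was read by filtration and scintillation counting.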

Structure (SMILES): CCOc1cc(C(=O)Nc2ccc([C@H]3CNCCO3)c(Cl)c2)ccn1 [Example 94, (S)—N-(3-Chloro-4-(morpholin-2-yl)phenyl)-2-ethoxyisonicotinamide hydrochloride]
Ki [1]: 0.0033 µM | Ki [2]: 0.0381 µM

Structure (SMILES): CCOc1ccc(C(=O)Nc2ccc([C@H]3CNCCO3)c(Cl)c2)cn1 [Example 95, (S)—N-(3-Chloro-4-(morpholin-2-yl)phenyl)-6-ethoxynicotinamide hydrochloride]
Ki [1]: 0.0033 µM | Ki [2]: 0.035 µM

Structure (SMILES): O=C(Nc1ccc([C@H]2CNCCO2)c(Cl)c1)c1cnn(-c2ccc(OC(F)F)cc2)c1 [Example 96, (S)—N-(3-Chloro-4-(morpholin-2-yl)phenyl)-1-(4-(difluoromethoxy)phenyl)-1H-pyrazole-4-carboxamide hydrochloride]
Ki [1]: 0.0013 µM | Ki [2]: 0.0006 µM

Structure (SMILES): N#Cc1ccc(-n2cc(C(=O)Nc3ccc([C@H]4CNCCO4)cc3Cl)cn2)cc1 [Example 103, (S)—N-(2-Chloro-4-(morpholin-2-yl)phenyl)-1-(4-cyanophenyl)-1H-pyrazole-4-carboxamide hydrochloride]
Ki [1]: 0.0052 µM | Ki [2]: 0.0031 µM

Ki [1]: 0.0019 µM | Ki [2]: 0.034 µM
Structure (SMILES): O=C(Nc1ccc([C@H]2CNCCO2)cc1F)c1cn(-c2ccc(OC(F)F)cc2)nn1 [Example 104, (S)-1-(4-(Difluoromethoxy)phenyl)-N-(2-fluoro-4-(morpholin-2-yl)phenyl)-1H-1,2,3-triazole-4-carboxamide]

Structure (SMILES): N#Cc1ccc(-n2cc(C(=O)Nc3ccc([C@H]4CNCCO4)c(Cl)c3)cn2)cc1 [Example 105, (S)—N-(3-Chloro-4-(morpholin-2-yl)phenyl)-1-(4-cyanophenyl)-1H-pyrazole-4-carboxamide hydrochloride]
Ki [1]: 0.0032 µM | Ki [2]: 0.0027 µM

Structure (SMILES): COc1cc(C(=O)Nc2ccc([C@H]3CNCCO3)c(F)c2)cc(C#N)n1 [Example 107, (S)-2-Cyano-N-(3-fluoro-4-(morpholin-2-yl)phenyl)-6-methoxyisonicotinamide hydrochloride]
Ki [1]: 0.0093 µM | Ki [2]: 0.0065 µM

Structure (SMILES): N#Cc1ccc(-n2cc(C(=O)Nc3ccc([C@H]4CNCCO4)c(F)c3)cn2)c(F)c1 [Example 108, (S)-1-(4-Cyano-2-fluorophenyl)-N-(3-fluoro-4-(morpholin-2-yl)phenyl)-1H-pyrazole-4-carboxamide hydrochloride]
Ki [1]: 0.0054 µM | Ki [2]: 0.0059 µM

Structure (SMILES): N#Cc1ccc(-n2cc(C(=O)Nc3ccc([C@H]4CNCCO4)c(Cl)c3)cn2)c(F)c1 [Example 109, (S)—N-(3-Chloro-4-(morpholin-2-yl)phenyl)-1-(4-cyano-2-fluorophenyl)-1H-pyrazole-4-carboxamide hydrochloride]
Ki [1]: 0.0026 µM | Ki [2]: 0.0038 µM

Structure (SMILES): N#Cc1ccc(-n2cc(C(=O)Nc3ccc([C@H]4CNCCO4)cc3F)cn2)c(F)c1 [Example 110, (S)-1-(4-Cyano-2-fluorophenyl)-N-(2-fluoro-4-(morpholin-2-yl)phenyl)-1H-pyrazole-4-carboxamide hydrochloride]
Ki [1]: 0.0088 µM | Ki [2]: 0.0152 µM

Structure (SMILES): N#Cc1ccc(-n2cc(C(=O)Nc3ccc([C@H]4CNCCO4)cc3F)cn2)cc1 [Example 111, (S)-1-(4-Cyanophenyl)-N-(2-fluoro-4-(morpholin-2-yl)phenyl)-1H-pyrazole-4-carboxamide hydrochloride]
Ki [1]: 0.0074 µM | Ki [2]: 0.0086 µM

Structure (SMILES): Cc1cc(C(=O)Nc2ccc([C@H]3CNCCO3)c(Cl)c2)cc(C#N)n1 [Example 112, (S)—N-(3-Chloro-4-(morpholin-2-yl)phenyl)-2-cyano-6-methylisonicotinamide hydrochloride]
Ki [1]: 0.0259 µM | Ki [2]: 0.0248 µM

Structure (SMILES): Cc1cc(C(=O)Nc2ccc([C@H]3CNCCO3)cc2F)cc(C#N)n1 [Example 113, (S)-2-Cyano-N-(2-fluoro-4-(morpholin-2-yl)phenyl)-6-methylisonicotinamide hydrochloride]
Ki [1]: 0.0481 µM | Ki [2]: 0.0654 µM

Structure (SMILES): Cc1cc(C(=O)Nc2ccc([C@H]3CNCCO3)c(F)c2)cc(C(N)=O)n1 [Example 114, (S)—N4-(3-Fluoro-4-(morpholin-2-yl)phenyl)-6-methylpyridine-2,4-dicarboxamide hydrochloride]
Ki [1]: 0.0649 µM | Ki [2]: 0.265 µM

Structure (SMILES): Cc1cc(C(=O)Nc2ccc([C@H]3CNCCO3)c(F)c2)cc(C#N)n1 [Example 115, (S)-2-Cyano-N-(3-fluoro-4-(morpholin-2-yl)phenyl)-6-methylisonicotinamide hydrochloride]
Ki [1]: 0.029 µM | Ki [2]: 0.0343 µM

Structure (SMILES): NC(=O)c1cc(C(=O)Nc2ccc([C@H]3CNCCO3)c(F)c2)cc(Cl)n1 [Example 116, (S)-6-Chloro-N4-(3-fluoro-4-(morpholin-2-yl)phenyl)pyridine-2,4-dicarboxamide hydrochloride]
Ki [1]: 0.0512 µM | Ki [2]: 0.162 µM

Structure (SMILES): CCc1cc(C(=O)Nc2ccc([C@H]3CNCCO3)c(F)c2)cc(C(N)=O)n1 [Example 117, (S)-6-Ethyl-N4-(3-fluoro-4-(morpholin-2-yl)phenyl)pyridine-2,4-dicarboxamide hydrochloride]
Ki [1]: 0.0284 µM | Ki [2]: 0.045 µM

Structure (SMILES): Cc1cc(C(=O)Nc2ccc([C@H]3CNCCO3)c(Cl)c2)cc(C(N)=O)n1 [Example 118, (S)—N4-(3-Chloro-4-(morpholin-2-yl)phenyl)-6-methylpyridine-2,4-dicarboxamide hydrochloride]
Ki [1]: 0.0416 µM | Ki [2]: 0.264 µM

Structure (SMILES): Cc1cc(C(=O)Nc2ccc([C@H]3CNCCO3)cc2F)cc(C(N)=O)n1 [Example 119, (S)—N4-(2-Fluoro-4-(morpholin-2-yl)phenyl)-6-methylpyridine-2,4-dicarboxamide hydrochloride]
Ki [1]: 0.0844 µM | Ki [2]: 0.687 µM

Structure (SMILES): COc1cc(C(=O)Nc2ccc([C@H]3CNCCO3)cc2F)cc(C(N)=O)n1 [Example 120, (S)—N4-(2-Fluoro-4-(morpholin-2-yl)phenyl)-6-methoxypyridine-2,4-dicarboxamide hydrochloride]
Ki [1]: 0.0851 µM | Ki [2]: 0.426 µM

Structure (SMILES): COc1cc(C(=O)Nc2ccc([C@H]3CNCCO3)cc2F)cc(C#N)n1 [Example 121, (S)-2-Cyano-N-(2-fluoro-4-(morpholin-2-yl)phenyl)-6-methoxyisonicotinamide hydrochloride]
Ki [1]: 0.0145 µM | Ki [2]: 0.0158 µM

Structure (SMILES): Cc1cc(C(=O)Nc2ccc([C@H]3CNCCO3)cc2Cl)cc(C(N)=O)n1 [Example 122, (S)—N4-(2-Chloro-4-(morpholin-2-yl)phenyl)-6-methylpyridine-2,4-dicarboxamide hydrochloride]
Ki [1]: 0.14 µM | Ki [2]: 0.758 µM

Structure (SMILES): Cc1cc(C(=O)Nc2ccc([C@H]3CNCCO3)cc2Cl)cc(C#N)n1 [Example 123, (S)—N-(2-Chloro-4-(morpholin-2-yl)phenyl)-2-cyano-6-methylisonicotinamide hydrochloride]
Ki [1]: 0.0413 µM | Ki [2]: 0.0474 µM

Structure (SMILES): COc1cc(C(=O)Nc2ccc([C@H]3CNCCO3)cc2Cl)cc(C#N)n1 [Example 124, (S)—N-(2-Chloro-4-(morpholin-2-yl)phenyl)-2-cyano-6-methoxyisonicotinamide hydrochloride]
Ki [1]: 0.0235 µM | Ki [2]: 0.0231 µM

Structure (SMILES): O=C(Nc1ccc([C@H]2CNCCO2)cc1F)c1cnn(-c2cncc(C(F)(F)F)n2)c1 [Example 125, (S)—N-(2-Fluoro-4-(morpholin-2-yl)phenyl)-1-(6-(trifluoromethyl)pyrazin-2-yl)-1H-pyrazole-4-carboxamide hydrochloride]
Ki [1]: 0.0182 µM | Ki [2]: 0.0076 µM
